The results in this text go back to patent publication US8664276B2, “Stilbene analogs and methods of treating cancer” (University of Kentucky Research Foundation, priority 2011, dated 2014).

For data set [1], the system named is Wnt target genes, Axin2 and c-Myc. The data set can be described thus: Western blot of Wnt target proteins in LS174 CRC cells. It is filed as cell-based. On the procedure: Western blot. Western blots were performed using the following antibodies: β-catenin (Sigma, C2206), c-Myc (Epitomics, 1472-1), Axin2 (Cell Signaling, 2151), β-Actin (Sigma, A1978), TCF4 (Epitomics, 2114-1) and pygopus2 (Santa Cruz, sc-74878), Cyclin D1 (Cell signaling, 2926).
(§1) Cyclin B1 levels were decreased, whereas p21^WAF1/CIP1 levels increased, consistent with the fact that p21^WAF1/CIP1 expression is repressed by c-Myc. β-catenin levels were not affected by resveratrol. Next, the mRNA levels of β-catenin target genes were analyzed using RT-PCR. Expression of survivin, Lgr5, CD44, and c-Myc were decreased in resveratrol-treated cells.
A panel of stilbene analogs was designed and synthesized (FIGS. 2, 3, 5A and 6A). […] However, the solubility of 4d was poor and it was not effective below 10 μM concentrations (data not shown). To improve its solubility and activity, compound 4d was modified with 2′-fluoro 4e, 3′-fluoro 4f and 4′-fluoro 4g substituents (FIG. 5D). Both compounds 4e and 4f had good activity at 10 μM, (E)-4-(2-fluorostyryl)-N,N-dimethylaniline.
(§2) Western blot and cell proliferation assay. The activity of fluorinated N,N-dialkylaminostilbenes (FIDAS or FIDAS agents) on Wnt signaling activity in cancer cells were analyzed by Western blot with antibodies against Wnt target genes, such as c-Myc, Axin2. The effects of FlDAS agents on cancer cell growth were analyzed using Cell Viability Analyzer (Beckman Coulter, Vi-Cell XR). These assays have been described previously (see Zhang et al., J. of Med. Chem. 54, 1288-1297 (2011)).
Background: In western blotting, separated proteins are transferred to a membrane and probed.

The next data set in a line: Solubility. The class given is physicochemical.
Data set [2] addresses T1, MAT2A (Homo sapiens, UniProt P31153). The data set can be described thus: Cell based SAM and SAH analysis in LS174 colon cancer cells (LC-MS/MS). More on the design: endogenous in cells; host or cells: LS174T. The settings on record: 3 μM of 4dd versus 10 uM of 4r and 30 uM of resveratrol. On the procedure:
(§3) SAM and SAH analysis by LC-MS/MS. The LC-MS/MS system consisted of two Varian ProStar 210 LC Pumps coupled with a Varian 1200L triple quadrupole mass spectrometer. The separation was performed on a Hypercarb column (50 mm×2.1 mm, […], Thermo Scientific #35003-052130). Gradient elution started with 98% solution A (0.1% formic acid in water), followed by an increase to 38% solution B (0.1% formic acid in acetonitrile) in 8 min. The column was than flushed with 90% B for 5 min and regenerated with 98% A for another 8 min. The flow rate was 0.25 mL/min. Between the 3rd and 11th min, the eluent was switched to the ion source of the mass spectrometer. The precursor product transitions for SAM (m/z 399→250), SAH (m/z 385→250) and [d-4]-SAH (m/z 389→136) were monitored. The optimized ion source parameters were: Capillary Voltage: 32 V for both SAM and SAH, Collision energy: 9 V and 7V for SAM and SAH, respectively, Needle voltage: 5000 V and the Shield voltage: 600V. Nitrogen was used as the drying gas at a temperature of 300° C. and the interface heater was set to 50° C. The drying gas and nebulizing gas were set to 20 and 50 psi, respectively.
Cell based SAM analysis. […] 5 ul of supernatants were analyzed by LC-MS/MS using a modified method based on a previous publication (see Krijt et al., J Chromatogr B Analyt Technol Biomed Life Sci 877, 2061-6, (2009)). […]

The next data set has as its system liver cancer cells. The data set can be described thus: Liver cancer cell proliferation. The settings on record: FIG. 15. The class given is cell-based. On the procedure:
as §2
As previously shown, several metabolites of the halogenated stilbenes of the present disclosure were synthesized (Example 2 and FIG. 3). In this study, the effects of some of these metabolites on cell proliferation were studied.

A further data set in a line: Tolerability in mice. The class given is in vivo. On the procedure:
Therefore, as shown in this example, the halogenated stilbene analogs of the present disclosure are capable of inhibiting CRC both in vitro and in vivo. In another study, it was shown that mice could tolerate at least 200 mg/kg of a halogenated stilbene analog, FlDAS 4dd.

Another data set deals with HT29 xenografted tumors. The data set can be described thus: HT29 tumor xenograft in nude mice, oral gavage. It is filed as in vivo. The conditions noted are these: HT29, 20 mg/kg in PEG400 by gavage. On the procedure:
Tumor xenograft in nude mice. LS174 or HT29 colon cancer cells (2×10^6) were injected subcutaneously into both flanks of 6-8 week C57BL/6J athymic nude mice as described in Zhang et al., Mol Cell Biol 2006, 26, 2055-2064. Compound 4r or 4dd was dissolved in corn oil or PEG400. The mice were treated with 20 mg/kg/day of 4r by ip injection or gavage (50 μl/mouse). Control mice were treated with same volume of corn oil or PEG400. The body weight and tumor growth were analyzed twice weekly for one month. Tumor size was measured using digital caliper. The tumor volume was calculated by the formula: V=½LW^2 (mm^3).
Xenografted nude mice were developed according to the protocol described above and in Zhang et al., J. of Med. Chem. 54, 1288-1297 (2011)). Briefly, HT29 cells were injected subcutaneously into the flanks of nude mice. The mice were then treated with 20 mg/kg compound 4dd dissolved in PEG400 by gavage. As described in Example 7, an IP injection of compound 4r dissolved in corn oil inhibited xenograft tumor growth. Here, it was also shown that the halogenated stilbenes of the present disclosure can also be dissolved in other solvents such as PEG400 and cyclodextran.

The subject of another data set is LS174 CRC cells. The data set can be described thus: CRC cell proliferation assay (Vi-Cell). The class given is cell-based. On the procedure:
Luciferase and cell proliferation assay. HEK293T cells were transiently transfected in a 12-well plate with 0.2 μg of the Super8xTOPFlash reporter and 0.05 μg of Renilla luciferase reporter. Culture medium was changed after 12 h. After 6 h, cells were treated with DMSO or Wnt inhibitors for 12 h, and then treated with 25 mM LiCl or Wnt conditioned medium. After 12 h, cells were harvested and luciferase activity measured by Dual-luciferase Reporter Assay System (Promega, Madison Wis.). All conditions were done in triplicate and each experiment was carried out at least two times. For cell proliferation assay, CRC cells were treated with DMSO or inhibitors for 2d and 4d. The cell numbers and viability were analyzed by Vi-Cell Cell Viability Analyzer.
as §2

A further data set deals with β-catenin target genes. As to the kind of experiment: RT-PCR of β-catenin target genes in LS174 cells. The settings on record: LS174 cells. The class given is cell-based. On the procedure: RT-PCR. LS174 cells were treated with DMSO or Wnt inhibitors. After 36 h, RNA was isolated using the RNeasy kit (Qiagen). RT-PCR was performed as described in Zhang et al., Mol Cell Biol 2006, 26, 2055-2064. The following primers were used: β-actin: 5′-CAACCGCGAGAAGATGAC-3′ (SEQ ID NO:01), 5′-AGGAAGGCTGGAAGAGTG-3′ (SEQ ID NO:02); surivivin: 5′-[…]-3′ (SEQ ID NO:03), 5′-[…]-3′ (SEQ ID NO:04); c-Myc: 5′-TGGGCTGTGAGGAGGTTTG-3′ (SEQ ID NO:05), 5′-TATGTGGAGCGGCTTCTCG-3′ (SEQ ID NO:06); Axin2: 5′-[…]-3′ (SEQ ID NO:07), 5′-[…]-3′ (SEQ ID NO:08); TCF4: 5′-[…]-3′ (SEQ ID NO:09), 5′-[…]-3′ (SEQ ID NO:10); pygopus2: 5′-GGCCGGTCTGCAAATGAAG-3′ (SEQ ID NO:11), 5′-TCCACCTCCAGTGCTGTAG-3′ (SEQ ID NO:12); Lgr5: 5′-[…]-3′ (SEQ ID NO:13), 5′-[…]-3′ (SEQ ID NO:14); CD44: 5′-[…]-3′ (SEQ ID NO:15), 5′-[…]-3′ (SEQ ID NO:16); Ki67: 5′-[…]-3′ (SEQ ID NO:17), 5′-[…]-3′ (SEQ ID NO:18).
as §1

Data set [3] deals with T1, MAT2A. The data set can be described thus: In-vitro SAM synthesis by MAT2A (LC-MS/MS). The arrangement: GST (N); made in house. The class given is biochemical. Here is the method:
as §3
SAM synthesis. […] purified MAT2A was incubated with 1 mM L-methionine and 1 mM ATP in […] reaction solution (50 mM Tris.Cl, 50 mM KCl, 10 mM MgCl2) for 5 min at 25° C. […] SAM was analyzed by LC-MS/MS. […]

Another data set concerns Wnt signaling. As to the kind of experiment: TopFlash luciferase reporter assay in HEK293T cells. The class given is cell-based. The conditions noted are these: HEK293T. Here is the method: Luciferase and cell proliferation assay. HEK293T cells were transiently transfected in a 12-well plate with 0.2 μg of the Super8xTOPFlash reporter and 0.05 μg of Renilla luciferase reporter. Culture medium was changed after 12 h. After 6 h, cells were treated with DMSO or Wnt inhibitors for 12 h, and then treated with 25 mM LiCl or Wnt conditioned medium. After 12 h, cells were harvested and luciferase activity measured by Dual-luciferase Reporter Assay System (Promega, Madison Wis.). All conditions were done in triplicate and each experiment was carried out at least two times. For cell proliferation assay, CRC cells were treated with DMSO or inhibitors for 2d and 4d. The cell numbers and viability were analyzed by Vi-Cell Cell Viability Analyzer. To identify Wnt pathway inhibitors for CRC prevention and treatment, a number of anti-cancer agents from plants were screened using the TopFlash reporter assay. The TopFlash reporter was transfected into HEK293T cells, and the cells were treated with Wnt3A-conditioned medium in order to activate the luciferase reporter. […] To determine if resveratrol regulates β-catenin degradation, the cells were treated with 25 mM LiCl, which inhibits GSK-3 and stabilizes β-catenin. In this assay, LiCl activated the reporter more strongly than Wnt3A conditioned medium. […] Emodin is an anti-cancer agent from plants; it exists in many unpurified resveratrol products. Emodin had no effect on Wnt signaling. See Zhang et al., J. of Med. Chem. 54, 1288-1297 (2011).

`CN(C)c1ccc(/C=C/c2ccccc2)cc1` [4d, (E)-4-styryl-N,N-dimethylaniline, reference compound]: the “repression of Wnt target genes at 30 μM” value in data set [1] (30 μM, CRC cells) was “strongly repressed”. For the same compound, the “Wnt inhibitory activity in Western blot, qualitative or relative to a comparator” value in data set [1] (CRC cells) is “more active than 4-methoxystilbene (4b)”. Besides, the “effectiveness on Wnt target genes below 10 μM” value in [1] (below 10 μM concentrations (data not shown)) was “not effective”. Moreover, the solubility result in the data set “Solubility” is “poor”.

On to `CNc1ccc(/C=C/c2c(F)cccc2Cl)cc1` [4dd, (E)-4-(2-chloro-6-fluorostyryl)-N-methylaniline], for which, on MAT2A [2], the “inhibition of MAT2A and reduction of SAM and SAH” value is “even more potent than 4r”. The “liver cancer cell proliferation, effectiveness versus resveratrol and 4r” value with liver cancer cells is listed as “significantly more effective than resveratrol, as well as compound 4r”. Also, in the data set “Tolerability in mice”, the tolerated dose result is on record as “at least 200 mg/kg”. For the same compound, in the data set “Tolerability in mice” (200 mg/kg (data not shown)), the body weights entry is reported as “reduced after one week but were recovered to normal weight after stopping 4dd treatment”. In the data set with HT29 xenografted tumors, the “effect on body weight” value is “without any adverse effect” and the “growth of xenografted tumors” value is recorded as “significantly inhibits”. Moreover, in the data set with LS174 CRC cells (FIG. 14), the “colon cancer cell proliferation, effectiveness versus resveratrol and 4r” value was “significantly more effective than resveratrol, as well as compound 4r”.

With `Oc1ccc(/C=C/c2cc(O)cc(O)c2)cc1` [resveratrol, trans- or (E)-3,5,4′-trihydroxystilbene, reference compound], in the data set on β-catenin target genes, the “cell proliferation marker Ki67 mRNA” value is “also decreased”; the “mRNA expression of survivin, Lgr5, CD44, and c-Myc” value was “decreased”. Moreover, the “MAT2A activity in SAM synthesis” value on MAT2A [3] was “inhibit MAT2A activity”. For the same compound, in data set [1] (CRC cells), the “protein levels of TCF4 and pygopus2” value is “reduced”; the β-catenin levels entry is “not affected”. In [1] (LS174 CRC cells), the “Cyclin B1 levels” value was “decreased”; the p21WAF1/CIP1 levels result was “increased”; the “protein levels of c-Myc and Cyclin D1” value was “reduced”. For the same compound, the “protein levels of Wnt/β-catenin targets at 100 μM” value in [1] (LS174 cells, 100 μM) was “reduced the protein levels”. In addition, the “LiCl-induced Wnt signaling” value in the data set with Wnt signaling (25 mM LiCl) is listed as “strongly inhibited”. Also, in the data set with Wnt signaling (Wnt3A-conditioned medium, 100 μM), the Wnt-induced luciferase activity entry was “significantly inhibited”. Further, in the data set with LS174 CRC cells (treated for 2d and 4d), the LS174 cell proliferation entry was “inhibited cell proliferation”.
